Tests used:
Test in all cases: microscale thermophoresis
[1] = test system: Dm-HS-1 (DNA, aptamer, HFNAP nucleobase side-chains: fluorophenyl at 19; allylamine at 22,25,37; alcohol at 28,34,49; phenol at 31,46; cyclopentyl at 40; cyclopropyl at 43,58; imidazole at 52,55,61) GAAAGCAGGACTGGAGATCGATTCTGGTGCTGTTGATCTCCGCCATTGTGCTCCTACCCTTCACAGACCGAACTAGAGCTT; conditions: 5 mM KCl, 1 mM MgCl2, 1 mM CaCl2 added; HBS-P+ buffer, 25 °C
[2] = test system: Dm-CCS-4 (DNA, aptamer, HFNAP: side-chain on 5' nucleobase of each coding trinucleotide, positions 19,22,25,...,61 (codon key Figure 1B)) GAAAGCAGGACTGGAGATCGCTGACAGCGATCCCGACTGTGATCTTGCTGCTGCCTCTCGCGCCAGACCGAACTAGAGCTT; conditions: 5 mM KCl, 1 mM MgCl2, 1 mM CaCl2 added; HBS-P+ buffer, 25 °C
[3] = test system: Dm-HS-1 TAC ∆ s.c. (DNA, aptamer, no side-chain at 55 (codon 13 TAC); others as HFNAP: fluorophenyl at 19; allylamine at 22, 25, 37; alcohol at 28, 34, 49; phenol at 31, 46; cyclopentyl at 40; cyclopropyl at 43, 58; imidazole at 52, 61) GAAAGCAGGACTGGAGATCGATTCTGGTGCTGTTGATCTCCGCCATTGTGCTCCTACCCTTCACAGACCGAACTAGAGCTT; conditions: 5 mM KCl, 1 mM MgCl2, 1 mM CaCl2 added to HBS-P+; HBS-P+ buffer, 25 °C
[4] = test system: Dm-HS-1 CGA ∆ s.c. (DNA, aptamer, as Dm-HS-1 but no side-chain at 19: allylamine at 22,25,37; alcohol at 28,34,49; phenol at 31,46; cyclopentyl at 40; cyclopropyl at 43,58; imidazole at 52,55,61) GAAAGCAGGACTGGAGATCGATTCTGGTGCTGTTGATCTCCGCCATTGTGCTCCTACCCTTCACAGACCGAACTAGAGCTT; conditions: 5 mM KCl, 1 mM MgCl2, 1 mM CaCl2 added; HBS-P+ buffer, 25 °C
[5] = test system: Dm-reference-based-random-after-selection-2 (DNA, other, HFNAP: side-chain on 5' nucleobase of each coding trinucleotide, positions 19,22,25,...,61 (codon key Figure 1B)) GAAAGCAGGACTGGAGATTTGTGCCCCTGATGCCCATGGTCCCTCCGCTGCTAACGTTTGCCTCAGACCGAACTAGAGCTT; conditions: 5 mM KCl, 1 mM MgCl2, 1 mM CaCl2 added; HBS-P+ buffer, 25 °C
[6] = test system: Dm-HS-7 (DNA, aptamer, HFNAP: side-chain on 5' nucleobase of each coding trinucleotide, positions 19,22,25,...,61 (codon key Figure 1B)) GAAAGCAGGACTGGAGATCGATTGCAGTTACGTTGCTAGTCCCCTTGATCACCTCCGTCACCTCAGACCGAACTAGAGCTT; conditions: 5 mM KCl, 1 mM MgCl2, 1 mM CaCl2 added; HBS-P+ buffer, 25 °C
[7] = test system: Dm-HS-6 ∆ s.c. (DNA, aptamer, none (no side-chains)) GAAAGCAGGACTGGAGATTGGTAGTAACTGCTGTCCTGCTAATCATGCCGTTCACGCTGACCTCAGACCGAACTAGAGCTT; conditions: 5 mM KCl, 1 mM MgCl2, 1 mM CaCl2 added; HBS-P+ buffer, 25 °C
[8] = test system: Dm-reference-based-random-after-selection-5 (DNA, other, HFNAP: side-chain on 5' nucleobase of each coding trinucleotide, positions 19,22,25,...,61 (codon key Figure 1B)) GAAAGCAGGACTGGAGATCATTTCCTCCCTTATCGATAATCTCCTTTTTTATACTGCTTTTTCCAGACCGAACTAGAGCTT; conditions: 5 mM KCl, 1 mM MgCl2, 1 mM CaCl2 added; HBS-P+ buffer, 25 °C
[9] = test system: Dm-HS-1 ∆ s.c. (DNA, aptamer, none (no side-chains)) GAAAGCAGGACTGGAGATCGATTCTGGTGCTGTTGATCTCCGCCATTGTGCTCCTACCCTTCACAGACCGAACTAGAGCTT; conditions: 5 mM KCl, 1 mM MgCl2, 1 mM CaCl2 added; HBS-P+ buffer, 25 °C
[10] = test system: Dm-HS-2 (DNA, aptamer, HFNAP: side-chain on 5' nucleobase of each coding trinucleotide, positions 19,22,25,...,61 (codon key Figure 1B)) GAAAGCAGGACTGGAGATCTATGGTCGCATCGTTGACCCTTGTCCTGCCCCTGTCTCTCTCAACAGACCGAACTAGAGCTT; conditions: 5 mM KCl, 1 mM MgCl2, 1 mM CaCl2 added; HBS-P+ buffer, 25 °C
[11] = test system: Dm-HS-8 ∆ s.c. (DNA, aptamer, none (no side-chains)) GAAAGCAGGACTGGAGATCGATTGCAGTTACGTCTCCCCTGCCCACCTTATTGCCATTCATAACAGACCGAACTAGAGCTT; conditions: 5 mM KCl, 1 mM MgCl2, 1 mM CaCl2 added; HBS-P+ buffer, 25 °C
[12] = test system: Dm-HS-9 (DNA, aptamer, HFNAP: side-chain on 5' nucleobase of each coding trinucleotide, positions 19,22,25,...,61 (codon key Figure 1B)) GAAAGCAGGACTGGAGATCGATTATTGTGATTTTGATCTCCCCCATATCCCCTTCCCTACTCGCAGACCGAACTAGAGCTT; conditions: 5 mM KCl, 1 mM MgCl2, 1 mM CaCl2 added; HBS-P+ buffer, 25 °C
[13] = test system: Dm-CCS-2 (DNA, aptamer, HFNAP: side-chain on 5' nucleobase of each coding trinucleotide, positions 19,22,25,...,61 (codon key Figure 1B)) GAAAGCAGGACTGGAGATCGTTTATGGCCACCTCCTTGACAGTTGCCCTGCCTCCAGTCCTCCCAGACCGAACTAGAGCTT; conditions: 5 mM KCl, 1 mM MgCl2, 1 mM CaCl2 added; HBS-P+ buffer, 25 °C
[14] = test system: Dm-HS-1 TGC ∆ s.c. (DNA, aptamer, no side-chain at 28 and 49 (codons 4 and 11 TGC, alcohol 2x); others as HFNAP: fluorophenyl at 19; allylamine at 22, 25, 37; alcohol at 34; phenol at 31, 46; cyclopentyl at 40; cyclopropyl at 43, 58; imidazole at 52, 55, 61) GAAAGCAGGACTGGAGATCGATTCTGGTGCTGTTGATCTCCGCCATTGTGCTCCTACCCTTCACAGACCGAACTAGAGCTT; conditions: 5 mM KCl, 1 mM MgCl2, 1 mM CaCl2 added to HBS-P+; HBS-P+ buffer, 25 °C
[15] = test system: Dm-CCS-5 (DNA, aptamer, HFNAP: side-chain on 5' nucleobase of each coding trinucleotide, positions 19,22,25,...,61 (codon key Figure 1B)) GAAAGCAGGACTGGAGATTTCTACTATCTCCAGCCGTTCCACCACTGATGCCCTTAGTATCCTCAGACCGAACTAGAGCTT; conditions: 5 mM KCl, 1 mM MgCl2, 1 mM CaCl2 added; HBS-P+ buffer, 25 °C

Structure (SMILES): COc1cccc2c1C(=O)c1c(O)c3c(c(O)c1C2=O)C[C@@](O)(C(C)=O)C[C@@H]3O[C@H]1C[C@H](N)[C@H](O)[C@H](C)O1
- Kd [1]: 12.85 ± 1.6 nM
- Kd [2]: 8.5 ± 2.3 nM
- Kd [3]: 21.7 ± 2.1 nM
- Kd [4]: 231.1 ± 23.6 nM
- Kd [5]: 114400 ± 7400 nM
- Kd [6]: 18.09 ± 5.2 nM
- Kd ∆ side-chains [7]: 1510 ± 65 nM
- Kd [8]: 119700 ± 9300 nM
- Kd ∆ side-chains [9]: 2610 ± 190 nM
- Kd [10]: 4.77 ± 1.0 nM
- Kd ∆ side-chains [11]: 4840 ± 260 nM
- Kd [12]: 1.13 ± 0.45 nM
- Kd [13]: 16.6 ± 14.0 nM
- Kd [14]: 20.3 ± 4.4 nM
- Kd [15]: 10.4 ± 1.5 nM

— article PMC9352670 (2022)
